According to patent US20240327364A1, “THERAPEUTIC TARGETING OF GPR68 TO INDUCE FERROPTOSIS” (University Of Maryland, Baltimore, priority 2023, published 2024):

Tests used:
ABL1-nonphosphorylated = target: T1, ABL1-nonphosphorylated (Homo sapiens, UniProt P00519); test: KinomeScan; assay type: binding; conditions: read-out: % Control
T1 construct: purchased DiscoveRx

AKT3 = target: T2, AKT3 (Homo sapiens, UniProt Q9Y243); test: KinomeScan; assay type: binding; conditions: read-out: % Control
T2 construct: purchased DiscoveRx (Fremont, CA)

CDK5 = target: T3, CDK5 (Homo sapiens, UniProt Q00535); test: KinomeScan; assay type: binding; conditions: read-out: % Control
T3 construct: purchased DiscoveRx (KinomeScan service)

CDK8 = target: T4, CDK8 (Homo sapiens, UniProt P49336); test: KinomeScan; assay type: binding; conditions: read-out: % Control
T4 construct: purchased DiscoveRx (KinomeScan service)

CDKL2 = CDKL2 (Homo sapiens, UniProt Q92772); test: KinomeScan; assay type: binding; conditions: read-out: % Control
DCAMKL3 = target: T5, DCAMKL3 (Homo sapiens, UniProt Q9C098); test: KinomeScan; assay type: binding; conditions: read-out: % Control
T5 construct: purchased DiscoveRx (Fremont, CA), KinomeScan service

EGFR(G719C) = target: T6, EGFR(G719C) (Homo sapiens, UniProt P00533, G719C); test: KinomeScan; assay type: binding; conditions: read-out: % Control
T6 construct: purchased DiscoveRx (Fremont, CA), KinomeScan service

EPHA1 = target: T7, EPHA1 (Homo sapiens, UniProt P21709); test: KinomeScan; assay type: binding; conditions: read-out: % Control
T7 construct: purchased DiscoveRx (Fremont, CA)

EPHA4 = target: T8, EPHA4 (Homo sapiens, UniProt P54764); test: KinomeScan; assay type: binding; conditions: read-out: % Control
T8 construct: purchased DiscoveRx (Fremont, CA)

FRK = target: T9, FRK (Homo sapiens, UniProt P42685); test: KinomeScan; assay type: binding; conditions: read-out: % Control
T9 construct: purchased DiscoveRx (Fremont, CA)

MAK = target: T10, MAK (Homo sapiens, UniProt P20794); test: KinomeScan; assay type: binding; conditions: read-out: % Control
T10 construct: purchased DiscoveRx

MAP4K5 = target: T11, MAP4K5 (Homo sapiens, UniProt Q9Y4K4); test: KinomeScan; assay type: binding; conditions: read-out: % Control
T11 construct: purchased DiscoveRx (Fremont, CA)

NEK2 = target: T12, NEK2 (Homo sapiens, UniProt P51955); test: KinomeScan; assay type: binding; conditions: read-out: % Control
T12 construct: purchased DiscoveRx

OSR1 = target: T13, OSR1 (Homo sapiens, UniProt O95747); test: KinomeScan; assay type: binding; conditions: read-out: % Control
T13 construct: purchased DiscoveRx

PLK1 = target: T14, PLK1 (Homo sapiens, UniProt P53350); test: KinomeScan; assay type: binding; conditions: read-out: % Control
T14 construct: purchased DiscoveRx (Fremont, CA)

PRKCD = target: T15, PRKCD (Homo sapiens, UniProt Q05655); test: KinomeScan; assay type: binding; conditions: read-out: % Control
T15 construct: purchased DiscoveRx (Fremont, CA)

[1] = target: T16, RSK2(Kin.Dom.1-N-terminal) (Homo sapiens, UniProt P51812); test: KinomeScan; assay type: binding; conditions: read-out: % Control
T16 construct: RSK2(Kin.Dom.1-N-terminal); purchased DiscoveRx (Fremont, CA)

TEC = target: T17, TEC (Homo sapiens, UniProt P42680); test: KinomeScan; assay type: binding; conditions: read-out: % Control
T17 construct: purchased DiscoveRx (Fremont, CA)

TSSK1B = target: T18, TSSK1B (Homo sapiens, UniProt Q9BXA7); test: KinomeScan; assay type: binding; conditions: read-out: % Control
T18 construct: purchased DiscoveRx (Fremont, CA)

BB2 = target: T19, BB2 (Homo sapiens, UniProt P30550); test: GPCR Profiler; assay type: cell-based
T19 construct: host or cells: Chem-1 cells with promiscuous Gα15

CB1 = target: T20, CB1 (Homo sapiens, UniProt P21554); test: GPCR Profiler; assay type: cell-based
T20 construct: host or cells: Chem-1 cells with promiscuous Gα15

D4 = target: T21, D4 (Homo sapiens, UniProt P21917); test: GPCR Profiler; assay type: cell-based
T21 construct: host or cells: Chem-1 cells expressing Gα15

M1 = target: T22, M1 (Homo sapiens, UniProt P11229); test: GPCR Profiler; assay type: cell-based
T22 construct: host or cells: Chem-1 cells with promiscuous Gα15

TP = target: T23, TP (Homo sapiens, UniProt P21731); test: GPCR Profiler; assay type: cell-based
T23 construct: host or cells: Chem-1 cells with Gα15

V2 = target: T24, V2 (Homo sapiens, UniProt P30518); test: GPCR Profiler; assay type: cell-based
T24 construct: host or cells: Chem-1 cells expressing Galpha15

158 GPCRs = test: GPCR profiling panel (summary); assay type: cell-based; conditions: 10 μM
Procedure: GPCR profiling assays were performed by Millipore (St. Louis, MO) using in cells expressing Gα15, a promiscuous G protein that enhances GPCR coupling to downstream Ca2+ signaling pathways. KinomeScan was conducted by DiscoveRx (Fremont, CA).
Since GPCRs represent >30% of targets for FDA-approved small molecules and are known to modulate cell migration, activity against 158 GPCRs was assessed based on their chemical structures. GPCRs (158) were tested for agonist and antagonist activity at 10 μM. […] Chemical segregation analysis of zebrafish phenotype was conducted to further identify the inhibitory activity responsible for the zebrafish phenotype. […] The identities of the R groups in Formula A are shown below in Table 5.
To identify the target of OGM1, the molecule was profiled for binding in a panel of 442 kinases (KinomeScan™, DiscoveRx™) and assessed its activity against 158 GPCRs in a single-point assay in Chem-1 cells that uses a promiscuous Gα15 protein to trigger calcium flux (see Table 9 and Table 10, below). […] Table 9. KinomeScan (DiscoverRx) profiling of OGM1.

PANC02 = test: Scratch migration; assay type: cell-based; conditions: 10 μM OGM2, 24 hours
Procedure: In a second study. PANC02 pancreatic cells plated and grown to confluence. Using a P200 tip, cells were denuded and allowed to migrate for 24 hours in DMSO or 10 μM OGM2 and imaged.

GPR68 = GPR68 (Homo sapiens, UniProt Q15743); test: Flow-induced calcium response, Chem1-GPR68 cells; assay type: cell-based; set-up: host or cells: Chem-1 cells (Chem1-OGR1); conditions: 5-minute pre-incubation with 3 μM OGM2
Procedure: Chem1-GPR68 cells were stained with calcium indicator dye, and then exposed to 34 dyn/cm^2 (3.4 Pa) of force, generating a robust calcium response that could be inhibited by a 5-minute pre-incubation with 3 μM OGM2. […] Of note, one example of a method to enhance expression of ATF4 gene is using CRISPRa with sgRNA targeting the ATF4 gene, including with the s RNAs with the following sequences: […]

T24 sequence (P30518 whole entry): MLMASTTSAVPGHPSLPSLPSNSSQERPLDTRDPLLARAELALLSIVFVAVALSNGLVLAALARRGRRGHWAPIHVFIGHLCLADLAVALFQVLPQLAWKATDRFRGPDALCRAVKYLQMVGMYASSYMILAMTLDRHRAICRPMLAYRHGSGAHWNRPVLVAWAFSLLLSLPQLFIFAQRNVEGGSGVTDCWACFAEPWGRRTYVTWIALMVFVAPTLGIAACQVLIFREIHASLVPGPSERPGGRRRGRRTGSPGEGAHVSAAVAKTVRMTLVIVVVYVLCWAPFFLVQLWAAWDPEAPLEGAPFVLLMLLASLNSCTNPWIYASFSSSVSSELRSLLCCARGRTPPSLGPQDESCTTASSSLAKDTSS
T19 sequence (P30550 whole entry): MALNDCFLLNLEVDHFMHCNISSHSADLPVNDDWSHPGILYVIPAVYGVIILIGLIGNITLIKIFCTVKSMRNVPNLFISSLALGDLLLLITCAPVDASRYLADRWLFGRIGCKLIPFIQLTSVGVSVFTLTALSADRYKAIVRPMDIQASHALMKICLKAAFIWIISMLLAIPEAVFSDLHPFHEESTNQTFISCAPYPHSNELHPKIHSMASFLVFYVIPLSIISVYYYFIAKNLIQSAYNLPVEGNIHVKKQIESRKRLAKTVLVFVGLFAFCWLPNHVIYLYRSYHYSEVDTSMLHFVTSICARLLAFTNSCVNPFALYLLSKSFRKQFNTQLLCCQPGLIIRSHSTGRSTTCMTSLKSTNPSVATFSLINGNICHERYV
T20 sequence (P21554 whole entry, species assumed): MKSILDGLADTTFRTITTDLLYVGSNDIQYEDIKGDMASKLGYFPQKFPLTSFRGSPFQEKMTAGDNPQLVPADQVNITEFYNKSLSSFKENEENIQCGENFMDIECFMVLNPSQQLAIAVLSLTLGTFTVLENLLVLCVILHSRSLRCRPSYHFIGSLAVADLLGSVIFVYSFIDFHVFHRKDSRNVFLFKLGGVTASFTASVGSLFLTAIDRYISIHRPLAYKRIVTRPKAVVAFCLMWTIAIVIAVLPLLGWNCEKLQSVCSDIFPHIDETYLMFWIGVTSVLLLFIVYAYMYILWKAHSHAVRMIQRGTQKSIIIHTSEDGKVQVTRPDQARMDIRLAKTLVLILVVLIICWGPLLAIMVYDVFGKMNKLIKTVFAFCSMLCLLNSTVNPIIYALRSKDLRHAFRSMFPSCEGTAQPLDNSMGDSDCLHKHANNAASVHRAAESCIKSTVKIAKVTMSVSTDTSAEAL
T22 sequence (P11229 whole entry): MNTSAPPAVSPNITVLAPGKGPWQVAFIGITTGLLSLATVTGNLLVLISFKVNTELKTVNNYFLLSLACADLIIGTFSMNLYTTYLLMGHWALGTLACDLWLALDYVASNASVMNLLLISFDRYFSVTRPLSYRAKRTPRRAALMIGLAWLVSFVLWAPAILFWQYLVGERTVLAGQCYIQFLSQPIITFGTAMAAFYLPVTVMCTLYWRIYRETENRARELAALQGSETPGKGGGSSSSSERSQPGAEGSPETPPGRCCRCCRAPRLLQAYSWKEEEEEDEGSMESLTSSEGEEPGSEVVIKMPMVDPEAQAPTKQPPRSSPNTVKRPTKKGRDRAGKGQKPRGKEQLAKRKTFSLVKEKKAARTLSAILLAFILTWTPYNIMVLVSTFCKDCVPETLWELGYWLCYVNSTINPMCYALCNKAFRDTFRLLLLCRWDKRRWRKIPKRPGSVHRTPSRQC
T23 sequence (P21731 whole entry): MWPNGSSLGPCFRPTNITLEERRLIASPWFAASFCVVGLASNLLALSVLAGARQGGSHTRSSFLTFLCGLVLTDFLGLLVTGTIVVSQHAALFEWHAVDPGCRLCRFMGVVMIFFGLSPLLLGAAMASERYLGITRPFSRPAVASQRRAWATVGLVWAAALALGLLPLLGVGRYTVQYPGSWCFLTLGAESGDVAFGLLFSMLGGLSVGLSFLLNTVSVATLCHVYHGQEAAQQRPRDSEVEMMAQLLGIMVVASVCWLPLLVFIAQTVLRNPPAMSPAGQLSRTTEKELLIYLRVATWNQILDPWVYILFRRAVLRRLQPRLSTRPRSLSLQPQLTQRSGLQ
T21 sequence (P21917 whole entry): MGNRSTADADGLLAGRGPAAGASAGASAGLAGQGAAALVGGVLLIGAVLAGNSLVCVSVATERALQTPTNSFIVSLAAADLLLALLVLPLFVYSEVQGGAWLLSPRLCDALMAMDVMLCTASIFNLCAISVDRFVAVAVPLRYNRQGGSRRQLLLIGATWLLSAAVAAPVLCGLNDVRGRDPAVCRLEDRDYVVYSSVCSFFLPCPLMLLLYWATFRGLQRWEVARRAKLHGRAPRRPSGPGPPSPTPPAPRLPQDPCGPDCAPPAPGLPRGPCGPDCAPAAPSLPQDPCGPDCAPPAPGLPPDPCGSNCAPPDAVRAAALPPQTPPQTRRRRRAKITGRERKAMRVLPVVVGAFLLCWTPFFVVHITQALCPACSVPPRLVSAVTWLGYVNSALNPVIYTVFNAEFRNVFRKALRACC
T1 sequence (P00519 242-493 limits assumed): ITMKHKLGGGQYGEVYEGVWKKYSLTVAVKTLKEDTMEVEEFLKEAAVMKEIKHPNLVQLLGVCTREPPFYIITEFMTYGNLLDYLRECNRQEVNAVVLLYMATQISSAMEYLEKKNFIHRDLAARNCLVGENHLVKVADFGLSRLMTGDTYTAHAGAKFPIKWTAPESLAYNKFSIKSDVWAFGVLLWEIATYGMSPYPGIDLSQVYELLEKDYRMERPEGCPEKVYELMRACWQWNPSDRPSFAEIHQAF
Sequence of CDKL2 (Q92772 whole entry): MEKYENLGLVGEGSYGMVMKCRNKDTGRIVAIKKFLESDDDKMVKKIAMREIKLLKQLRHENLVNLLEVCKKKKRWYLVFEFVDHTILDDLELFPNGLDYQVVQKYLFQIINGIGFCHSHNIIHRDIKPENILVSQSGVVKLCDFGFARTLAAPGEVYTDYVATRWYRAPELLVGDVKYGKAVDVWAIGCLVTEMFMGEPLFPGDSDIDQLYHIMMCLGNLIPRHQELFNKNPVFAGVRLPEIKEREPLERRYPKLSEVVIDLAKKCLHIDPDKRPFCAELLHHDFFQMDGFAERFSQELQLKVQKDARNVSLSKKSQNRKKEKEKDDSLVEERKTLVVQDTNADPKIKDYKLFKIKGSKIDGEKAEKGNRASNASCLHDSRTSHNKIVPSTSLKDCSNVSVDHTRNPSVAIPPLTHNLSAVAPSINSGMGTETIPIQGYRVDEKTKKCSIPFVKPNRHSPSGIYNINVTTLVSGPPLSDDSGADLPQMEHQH
T3 sequence (Q00535 whole entry): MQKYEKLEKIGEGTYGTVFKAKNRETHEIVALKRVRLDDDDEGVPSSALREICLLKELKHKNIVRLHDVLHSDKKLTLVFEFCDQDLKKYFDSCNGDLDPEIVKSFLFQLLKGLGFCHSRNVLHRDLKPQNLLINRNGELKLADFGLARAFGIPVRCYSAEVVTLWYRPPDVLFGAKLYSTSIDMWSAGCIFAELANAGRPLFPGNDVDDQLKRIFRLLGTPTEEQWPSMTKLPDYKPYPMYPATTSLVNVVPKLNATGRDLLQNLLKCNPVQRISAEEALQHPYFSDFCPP
T18 sequence (Q9BXA7 whole entry): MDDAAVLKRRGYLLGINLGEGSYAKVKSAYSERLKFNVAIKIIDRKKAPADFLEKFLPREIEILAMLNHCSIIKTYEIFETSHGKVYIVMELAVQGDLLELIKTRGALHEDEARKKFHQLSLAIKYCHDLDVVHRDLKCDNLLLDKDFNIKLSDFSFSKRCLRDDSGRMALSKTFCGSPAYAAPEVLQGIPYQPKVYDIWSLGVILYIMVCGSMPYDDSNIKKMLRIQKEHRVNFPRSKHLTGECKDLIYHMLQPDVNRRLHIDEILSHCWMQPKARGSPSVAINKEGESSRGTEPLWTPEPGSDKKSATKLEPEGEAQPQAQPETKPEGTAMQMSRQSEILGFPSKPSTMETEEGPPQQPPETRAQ
T5 sequence (Q9C098 whole entry): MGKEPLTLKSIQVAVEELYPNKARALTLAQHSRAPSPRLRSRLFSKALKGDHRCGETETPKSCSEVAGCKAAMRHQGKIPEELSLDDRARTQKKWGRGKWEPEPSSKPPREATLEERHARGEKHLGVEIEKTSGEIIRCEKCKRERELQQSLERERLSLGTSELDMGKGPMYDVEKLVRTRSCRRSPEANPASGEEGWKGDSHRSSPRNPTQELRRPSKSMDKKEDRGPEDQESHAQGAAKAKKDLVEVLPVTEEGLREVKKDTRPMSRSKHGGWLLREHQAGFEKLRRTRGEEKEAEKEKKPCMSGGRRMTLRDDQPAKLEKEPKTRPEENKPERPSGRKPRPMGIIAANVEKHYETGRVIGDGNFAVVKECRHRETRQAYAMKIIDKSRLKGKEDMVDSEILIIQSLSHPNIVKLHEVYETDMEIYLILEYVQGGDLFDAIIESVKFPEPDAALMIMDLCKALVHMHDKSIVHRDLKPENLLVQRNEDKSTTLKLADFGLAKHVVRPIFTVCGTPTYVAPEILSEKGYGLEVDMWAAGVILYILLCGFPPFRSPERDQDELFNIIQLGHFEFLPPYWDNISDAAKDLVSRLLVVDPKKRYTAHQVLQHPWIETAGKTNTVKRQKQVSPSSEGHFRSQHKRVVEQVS
T12 sequence (P51955 whole entry): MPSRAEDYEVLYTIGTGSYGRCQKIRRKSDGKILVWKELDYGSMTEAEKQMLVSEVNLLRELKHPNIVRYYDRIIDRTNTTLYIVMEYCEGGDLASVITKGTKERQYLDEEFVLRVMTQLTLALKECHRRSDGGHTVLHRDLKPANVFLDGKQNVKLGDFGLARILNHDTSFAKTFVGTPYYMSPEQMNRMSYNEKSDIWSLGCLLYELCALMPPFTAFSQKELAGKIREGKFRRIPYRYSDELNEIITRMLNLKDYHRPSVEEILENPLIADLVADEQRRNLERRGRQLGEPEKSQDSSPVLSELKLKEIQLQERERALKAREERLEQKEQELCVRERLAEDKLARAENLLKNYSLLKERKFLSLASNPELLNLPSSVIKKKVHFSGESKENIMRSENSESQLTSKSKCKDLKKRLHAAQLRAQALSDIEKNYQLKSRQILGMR

CCc1ccc2c(c1)C1(NN=C(c3cccc4ccccc34)S1)C(=O)N2 (stereo not shown) [OGM1, 5-ethyl-5′-naphthalen-1-ylspiro[1H-indole-3,2′-3H-1,3,4-thiadiazole]-2-one]
remaining binding at 10 µM (ABL1-nonphosphorylated): 100%
remaining binding at 10 µM (AKT3): 100%
remaining binding at 10 µM (CDK5): 100%
remaining binding at 10 µM (CDK8): 100%
remaining binding at 10 µM (CDKL2): 100%
remaining binding at 10 µM (DCAMKL3): 100%
remaining binding at 10 µM (EGFR(G719C)): 100%
remaining binding at 10 µM (EPHA1): 92%
remaining binding at 10 µM (EPHA4): 100%
remaining binding at 10 µM (FRK): 100%
remaining binding at 10 µM (MAK): 90%
remaining binding at 10 µM (MAP4K5): 100%
remaining binding at 10 µM (NEK2): 78%
remaining binding at 10 µM (OSR1): 92%
remaining binding at 10 µM (PLK1): 100%
remaining binding at 10 µM (PRKCD): 100%
remaining binding at 10 µM [1]: 95%
remaining binding at 10 µM (TEC): 93%
remaining binding at 10 µM (TSSK1B): 79%
Antagonism (BB2; 10 uM): 0
Agonism (BB2; 12.5 uM): −0.2
Antagonism (CB1; 10 uM): −6.8
Agonism (CB1; 12.5 uM): −0.1
Antagonism (D4; 10 uM): −16.3
Agonism (D4; 12.5 uM): 0.6
Antagonism (M1; 10 uM): −3.3
Agonism (M1; 12.5 uM): 0.8
Antagonism (TP; 10 uM): 8.1
Agonism (TP; 12.5 uM): 0.2
Antagonism (V2; 10 uM): 2.9
Agonism (V2; 12.5 uM): 0.6
GPCRs significantly inhibited (158 GPCRs): significantly inhibited only the lysophosphatidic acid receptor 1 (LPAR1), and extracellular proton-sensing GPR68/OGR1

CCc1ccc2c(c1)C1(NN=C(c3ccccc3)S1)C(=O)N2 (stereo not shown) [OGM2]
migration (PANC02): significantly reduced migration
calcium response to 34 dyn/cm^2 flow (GPR68): inhibited
